In the supplement of paper PMC9013687:
± gives the standard deviation of the averaged measurements.

Columns and labels:
Danio rerio embryo [1] = assay: EC20 Curvature_Increase; higher = less potent
Protocol: (§1)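 Zebrafish embryos (UFZ-OBI strain) were exposed from 2 hpf for 48 h (2 dpf) or 96 h (4 dpf) at 28 °C; spontaneous tail coiling was scored at 25 hpf. Morphological features from automated image analysis (FishInspector), heart rate and locomotor response were fitted with drc models. Quantal endpoints were dichotomised at 2.5 SD from controls and fitted with a log-logistic model; heart rate, pigmentation and STC were normalised to the replicate control mean. Betamethasone was tested as betamethasone dipropionate, diflorasone as diflorasone diacetate.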

Danio rerio embryo [2] = assay: EC50 Head trunk angle_Decrease; conditions: exposure time: 2 dpf
Protocol: as §1

Danio rerio embryo [3] = assay: EC50 Pericard size_Increase; conditions: exposure time: 4 dpf
Protocol: as §1

Danio rerio embryo [4] = assay: EC10 Pericard size_Increase; higher = less potent; conditions: exposure time: 4 dpf
Protocol: as §1

Danio rerio embryo [5] = assay: EC10 Body length_Decrease; higher = less potent; conditions: exposure time: 2 dpf
Protocol: as §1

Danio rerio embryo [6] = assay: EC20 Body length_Decrease; higher = less potent; conditions: exposure time: 2 dpf
Protocol: as §1

Danio rerio embryo [7] = assay: EC20 Any effect; higher = less potent
Protocol: as §1

Danio rerio embryo [8] = assay: EC10 Head trunk angle_Decrease; higher = less potent; conditions: exposure time: 2 dpf
Protocol: as §1

Danio rerio embryo [9] = assay: EC50 Body length_Decrease; conditions: exposure time: 2 dpf
Protocol: as §1

Danio rerio embryo [10] = assay: EC50 Otolith-eye distance_Decrease; conditions: exposure time: 4 dpf
Protocol: as §1

Danio rerio embryo [11] = assay: EC10 Any effect; higher = less potent
Protocol: as §1

Danio rerio embryo [12] = assay: EC20 Eye size_Decrease; higher = less potent
Protocol: as §1

Danio rerio embryo [13] = assay: EC20 Pericard size_Increase; higher = less potent; conditions: exposure time: 4 dpf
Protocol: as §1

Danio rerio embryo [14] = assay: EC20 Otolith-eye distance_Decrease; higher = less potent; conditions: exposure time: 4 dpf
Protocol: as §1

Danio rerio embryo [15] = assay: EC20 Bladder size_Decrease; higher = less potent; conditions: exposure time: 4 dpf
Protocol: as §1

Danio rerio embryo [16] = assay: EC10 Curvature_Increase; higher = less potent
Protocol: as §1

Danio rerio embryo [17] = assay: EC50 Bladder size_Decrease; conditions: exposure time: 4 dpf
Protocol: as §1

Danio rerio embryo [18] = assay: EC20 Head trunk angle_Decrease; higher = less potent; conditions: exposure time: 2 dpf
Protocol: as §1

Danio rerio embryo [19] = assay: EC50 Eye size_Decrease
Protocol: as §1

Danio rerio embryo [20] = assay: spontaneous tail coiling frequency (coils/min/embryo); higher = more spontaneous movement; conditions: 25 hpf
Protocol: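 Spontaneous tail coilings of zebrafish embryos exposed from 2 hpf were recorded at 24-25 hpf in 1-min videos and detected by a KNIME workflow from grey-value variance. Betamethasone was tested as the dipropionate, diflorasone as the diacetate.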

Danio rerio embryo [21] = assay: EC50 Curvature_Increase
Protocol: as §1

Danio rerio embryo [22] = conditions: exposure time: 4 dpf
Protocol: as §1

Danio rerio embryo [23] = system: Danio rerio embryo
Protocol: as §1

Danio rerio embryo [24] = assay: EC10 Eye size_Decrease; higher = less potent
Protocol: as §1

Danio rerio embryo [25] = assay: EC20 Eye-jaw distance_Decrease; higher = less potent; conditions: exposure time: 4 dpf
Protocol: as §1

Danio rerio embryo [26] = assay: EC10 Bladder size_Decrease; higher = less potent; conditions: exposure time: 4 dpf
Protocol: as §1

Danio rerio embryo [27] = assay: EC10 Otolith-eye distance_Decrease; higher = less potent; conditions: exposure time: 4 dpf
Protocol: as §1

Danio rerio embryo [28] = assay: EC50 Eye-jaw distance_Decrease; conditions: exposure time: 4 dpf
Protocol: as §1

Danio rerio embryo [29] = assay: EC10 Lack of SB; higher = less potent; conditions: exposure time: 4 dpf
Protocol: as §1

Danio rerio embryo [30] = assay: EC10 Eye-jaw distance_Decrease; higher = less potent; conditions: exposure time: 4 dpf
Protocol: as §1

Danio rerio embryo [31] = assay: EC20 Lack of SB; higher = less potent; conditions: exposure time: 4 dpf
Protocol: as §1

COC(=O)Nc1nc2cc(Sc3ccccc3)ccc2[nH]1 [Fenbendazole]
EC20 Curvature Increase (Danio rerio embryo [1]; exposure time: 2 dpf): 27 nM
EC20 Curvature Increase (Danio rerio embryo [1]; exposure time: 4 dpf): 68 nM
EC50 Head trunk angle Decrease (Danio rerio embryo [2]): 41 nM
EC50 Pericard size Increase (Danio rerio embryo [3]): 85 nM
EC10 Pericard size Increase (Danio rerio embryo [4]): 67 nM
EC10 Body length Decrease (Danio rerio embryo [5]): 30 nM
EC20 Body length Decrease (Danio rerio embryo [6]): 35 nM
EC20 Any effect (Danio rerio embryo [7]; exposure time: 2 dpf): 19 nM
EC20 Any effect (Danio rerio embryo [7]; exposure time: 4 dpf): 56 nM
EC10 Head trunk angle Decrease (Danio rerio embryo [8]): 37 nM
EC50 Body length Decrease (Danio rerio embryo [9]): 45 nM
EC50 Otolith-eye distance Decrease (Danio rerio embryo [10]): 89 nM
EC10 Any effect (Danio rerio embryo [11]; exposure time: 2 dpf): 14 nM
EC10 Any effect (Danio rerio embryo [11]; exposure time: 4 dpf): 49 nM
EC20 Eye size Decrease (Danio rerio embryo [12]; exposure time: 2 dpf): 37 nM
EC20 Eye size Decrease (Danio rerio embryo [12]; exposure time: 4 dpf): 70 nM
EC20 Pericard size Increase (Danio rerio embryo [13]): 73 nM
EC20 Otolith-eye distance Decrease (Danio rerio embryo [14]): 77 nM
EC20 Bladder size Decrease (Danio rerio embryo [15]): 47 nM
EC10 Curvature Increase (Danio rerio embryo [16]; exposure time: 2 dpf): 22 nM
EC10 Curvature Increase (Danio rerio embryo [16]; exposure time: 4 dpf): 62 nM
EC50 Bladder size Decrease (Danio rerio embryo [17]): 49 nM
EC20 Head trunk angle Decrease (Danio rerio embryo [18]): 38 nM
EC50 Eye size Decrease (Danio rerio embryo [19]; exposure time: 2 dpf): 51 nM
EC50 Eye size Decrease (Danio rerio embryo [19]; exposure time: 4 dpf): 82 nM
spontaneous tail coiling frequency (Danio rerio embryo [20]; 0.013 µM): 0.94
spontaneous tail coiling frequency (Danio rerio embryo [20]; 0.017 µM): 2.28
spontaneous tail coiling frequency (Danio rerio embryo [20]; 0.02 µM): 1.96
spontaneous tail coiling frequency (Danio rerio embryo [20]; 0.03 µM): 1.28
spontaneous tail coiling frequency (Danio rerio embryo [20]; 0.0319628 µM): 4.8 ± 2.3
spontaneous tail coiling frequency (Danio rerio embryo [20]; 0.045 µM): 1.58
spontaneous tail coiling frequency (Danio rerio embryo [20]; 0.0477056 µM): 5.09 ± 2.4
spontaneous tail coiling frequency (Danio rerio embryo [20]; 0.048 µM): 2.73
spontaneous tail coiling frequency (Danio rerio embryo [20]; 0.064 µM): 2.5
spontaneous tail coiling frequency (Danio rerio embryo [20]; 0.067 µM): 4.88 ± 1.5
spontaneous tail coiling frequency (Danio rerio embryo [20]; 0.0715584 µM): 6.17
spontaneous tail coiling frequency (Danio rerio embryo [20]; 0.084 µM): 2.72
spontaneous tail coiling frequency (Danio rerio embryo [20]; 0.087 µM): 4.84 ± 1.5
spontaneous tail coiling frequency (Danio rerio embryo [20]; 0.107 µM): 4.95 ± 0.81
EC50 Curvature Increase (Danio rerio embryo [21]; exposure time: 2 dpf): 38 nM
EC50 Curvature Increase (Danio rerio embryo [21]; exposure time: 4 dpf): 82 nM
EC50 Lack of SB (Danio rerio embryo [22]): 50 nM
EC50 Any effect (Danio rerio embryo [23]; exposure time: 2 dpf): 32 nM
EC50 Any effect (Danio rerio embryo [23]; exposure time: 4 dpf): 70 nM
EC10 Eye size Decrease (Danio rerio embryo [24]; exposure time: 2 dpf): 31 nM
EC10 Eye size Decrease (Danio rerio embryo [24]; exposure time: 4 dpf): 64 nM
EC20 Eye-jaw distance Decrease (Danio rerio embryo [25]): 62 nM
EC10 Bladder size Decrease (Danio rerio embryo [26]): 45 nM
EC10 Otolith-eye distance Decrease (Danio rerio embryo [27]): 70 nM
EC50 Eye-jaw distance Decrease (Danio rerio embryo [28]): 81 nM
EC10 Lack of SB (Danio rerio embryo [29]): 46 nM
EC10 Eye-jaw distance Decrease (Danio rerio embryo [30]): 53 nM
EC20 Lack of SB (Danio rerio embryo [31]): 47 nM
